In US10875837B2, “Inhibitors of the fibroblast growth factor receptor” (BLUEPRINT MEDICINES CORPORATION, priority 2013, dated 2020) one finds IC50 data, which are given here for 34 compounds.

Assay [1] concerns the target T1, wild type FGFR-4 (Homo sapiens, UniProt P22455).
T1 construct: purchased Carna Biosciences, Inc
The experiment in a line: FGFR-4 wild type assay at Km (Caliper electrophoretic mobility shift). The assay is classed as biochemical. Particulars: wild type FGFR-4, 400 uM ATP, 25 C, 90 minutes; read-out: INH-FGFR4. How it is done:
Biochemical Activity Assessment In order to assess the activity of chemical compounds against the relevant kinase of interest, the Caliper LifeSciences electrophoretic mobility shift technology platform is utilized. Fluorescently labeled substrate peptide is incubated in the presence dosed levels of compounds, a set concentration of kinase and of ATP, so that a reflective proportion of the peptide is phosphorylated. At the end of the reaction, the mix of phosphorylated (product) and non-phosphorylated (substrate) peptides are passed through the microfluidic system of the Caliper LabChip® EZ Reader II, under an applied potential difference. The presence of the phosphate group on the product peptide provides a difference in mass and charge between the product peptide and the substrate peptide, resulting in a separation of the substrate and product pools in the sample. As the pools pass the LEDS within the instrument, these pools are detected and resolved as separate peaks. The ratio between these peaks therefore reflects the activity of the chemical matter at that concentration in that well, under those conditions.
FGFR-4 wild type assay at Km: In each well of a 384-well plate, 0.5 ng/ul of wild type FGFR-4 (Carna Biosciences, Inc.) was incubated in a total of 12.5 ul of buffer (100 mM HEPES pH 7.5, 0.015% Brij 35, 10 mM MgCl2, 1 mM DTT) with 1 uM CSKtide (5-FAM-KKKKEEIYFFFG-NH2) and 400 uM ATP at 25 C for 90 minutes in the presence or absence of a dosed concentration series of compound (1% DMSO final concentration). The reaction was stopped by the addition of 70 ul of Stop buffer (100 mM HEPES pH 7.5, 0.015% Brij 35, 35 mM EDTA and 0.2% of Coating Reagent 3 (Caliper Lifesciences)). The plate was then read on a Caliper LabChip® EZ Reader II (protocol settings: −1.9 psi, upstream voltage −700, downstream voltage −3000, post sample sip 35 s).

Assay [2] deals with pMAPK (Thr202/Tyr204) in MDA-MB453 or DMS 114 cells. As to the kind of experiment: Detection of pMAPK (Thr202/Tyr204) using Alpha ELISA (pERK alphaLISA). Particulars: 1 hr incubation with compound; cell line not given (MDA-MB453 or DMS 114). The assay is classed as cell-based. How it is done: Detection of pMAPK (Thr202/Tyr204) Using Alpha ELISA
MDA-MB453 or DMS 114 cells were plated in 96-well cell culture plates at a density of 1×10^5 cells or 3×10^4 cells, respectively. Cells were allowed to attach, and growth media was replaced with serum free media. Compounds were added at the indicated concentrations. Following 1 hr incubation in the presence of compound, cells were collected. For the DMS 114 cells, 100 ng/mL FGF2 was added for 10 min prior to cell collection. Cell lysates were prepared and processed according to manufacturer instruction (AlphaScreen® SureFire™ Phospho-ERK 1/2 Kit (Perkin Elmer).
In general terms: An ELISA detects its analyte on a solid surface through an enzyme-linked reagent.

pIC50: −log10 of the molar value.

T1 sequence (P22455 22-802): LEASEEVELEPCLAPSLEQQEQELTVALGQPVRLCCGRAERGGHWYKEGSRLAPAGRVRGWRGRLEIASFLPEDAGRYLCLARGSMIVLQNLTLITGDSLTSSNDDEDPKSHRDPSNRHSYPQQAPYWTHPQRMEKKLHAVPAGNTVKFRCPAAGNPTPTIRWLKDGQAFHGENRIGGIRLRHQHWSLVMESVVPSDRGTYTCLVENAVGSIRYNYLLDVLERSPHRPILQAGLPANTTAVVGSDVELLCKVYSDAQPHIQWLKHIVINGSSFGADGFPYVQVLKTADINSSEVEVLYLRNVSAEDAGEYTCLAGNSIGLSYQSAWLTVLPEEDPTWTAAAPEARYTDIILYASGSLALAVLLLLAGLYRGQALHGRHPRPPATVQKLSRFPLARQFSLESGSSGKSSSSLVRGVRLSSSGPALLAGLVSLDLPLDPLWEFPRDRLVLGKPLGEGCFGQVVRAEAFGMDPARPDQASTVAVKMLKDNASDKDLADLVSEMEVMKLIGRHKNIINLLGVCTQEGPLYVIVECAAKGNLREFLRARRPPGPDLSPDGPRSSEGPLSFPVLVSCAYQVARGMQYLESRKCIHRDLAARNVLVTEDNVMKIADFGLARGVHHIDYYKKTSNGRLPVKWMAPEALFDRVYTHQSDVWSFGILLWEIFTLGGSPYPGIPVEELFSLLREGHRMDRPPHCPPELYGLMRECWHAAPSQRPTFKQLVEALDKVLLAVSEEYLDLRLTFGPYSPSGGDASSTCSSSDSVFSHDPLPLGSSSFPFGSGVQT

Turning to `C=CC(=O)N[C@H]1CN(C(=O)CN)C[C@H]1Nc1ncc2cc(-c3c(Cl)c(OC)cc(OC)c3Cl)ccc2n1` (racemic) [Compound 74], the pIC50 in assay [1] was 7.00 to 8.00; in assay [2], 6.00 to 7.00.

With `C=CC(=O)N[C@H]1CN(C(=O)OC(C)(C)C)C[C@H]1Nc1ncc2cc(-c3c(Cl)c(OC)cc(OC)c3Cl)ccc2n1` (racemic) [Compound 90], the values for the pIC50 in assay [1] and in assay [2] were 7.00 to 8.00 and 6.00 to 7.00, respectively.

Consider `C=CC(=O)N[C@H]1CCC[C@H]1Nc1ncc2cc(-c3c(Cl)c(OC)cc(OC)c3Cl)ccc2n1` [Compound 24], for which the pIC50 in assay [1] and in assay [2] was 7.00 to 8.00 in each case.

Regarding `C=CC(=O)N[C@@H]1COC[C@@H]1Nc1ncc2cc(-c3c(Cl)c(OC)cc(OC)c3Cl)ccc2n1` [Compound 26], the pIC50 in assay [1] is 7.00 to 8.00; in assay [2], 6.00 to 7.00.

Regarding `C=CC(=O)NC1COCC1Nc1ncc2cc(-c3c(Cl)c(OC)cc(OC)c3Cl)ccc2n1` (centres unmarked) [Compound 28], the pIC50 in assay [1] is more than 8.00; in assay [2], 7.00 to 8.00.

On to `C=CC(=O)N[C@H]1COC[C@H]1Nc1ncc2cc(-c3c(Cl)c(OC)cc(OC)c3Cl)cnc2n1` [Compound 29], for which the values for the pIC50 in assay [1] and in assay [2] were 7.00 to 8.00 and more than 8.00, respectively.

For the compound `C=CC(=O)N[C@H]1C[C@@H]2C[C@@H]2[C@H]1Nc1ncc2cc(-c3c(Cl)c(OC)cc(OC)c3Cl)ccc2n1` [Compound 32, N-((1S,2R,3S,5S)-2-((6-(2,6-dichloro-3,5-dimethoxyphenyl)quinazolin-2-yl)amino)bicyclo[3.1.0]hexan-3-yl)acrylamide], the pIC50 in assay [1] and in assay [2] was more than 8.00 throughout.

With `C=CC(=O)N[C@H]1CCCC[C@H]1Nc1ncc2cc(-c3c(Cl)c(OC)cc(OC)c3Cl)ccc2n1` [Compound 34, N-((1S,2R)-2-((6-(2,6-dichloro-3,5-dimethoxyphenyl)quinazolin-2-yl)amino)cyclohexyl)acrylamide], the pIC50 in assay [1] and in assay [2] was 7.00 to 8.00 throughout.

Consider `C=CC(=O)N[C@H]1CCOC[C@H]1Nc1ncc2cc(-c3c(Cl)c(OC)cc(OC)c3Cl)ccc2n1` [Compound 40, N-((3S,4S)-3-((6-(2,6-dichloro-3,5-dimethoxyphenyl)quinazolin-2-yl)amino)tetrahydro-2H-pyran-4-yl)acrylamide], for which the pIC50 in assay [1] and in assay [2] was more than 8.00 in each case.

Turning to `C=CC(=O)N[C@H]1COCC[C@H]1Nc1ncc2cc(-c3c(Cl)c(OC)cc(OC)c3Cl)ccc2n1` [Compound 41], the pIC50 is 7.00 to 8.00 in assay [1] and 6.00 to 7.00 in assay [2].

On to `C=CC(=O)N[C@H]1CCOC[C@H]1Nc1ncc2cc(-c3c(Cl)c(OC)cc(OC)c3Cl)cnc2n1` [Compound 44], for which the pIC50 in assay [1] and in assay [2] was 7.00 to 8.00 each time.

Take `C=CC(=O)N[C@H]1CCC[C@H]1Nc1ncc2cc(-c3c(Cl)c(OC)cc(OC)c3Cl)cc(F)c2n1` [Compound 45]: the pIC50 in assay [1] and in assay [2] was 7.00 to 8.00 throughout.

For the compound `C=CC(=O)N[C@H]1COC[C@H]1Nc1ncc2cc(-c3c(Cl)c(OC)cc(OC)c3Cl)cc(F)c2n1` [Compound 46], the pIC50 in assay [1] and in assay [2] was more than 8.00 each time.

Consider `C=CC(=O)N[C@H]1CCOC[C@H]1Nc1ncc2cc(-c3c(Cl)c(OC)cc(OC)c3Cl)c(F)cc2n1` [Compound 51], for which the pIC50 in assay [1] and in assay [2] was more than 8.00 each time.

For `C=CC(=O)N[C@H]1CCOC[C@H]1Nc1ncc2cc(-c3c(Cl)c(OC)cc(OC)c3Cl)cc(F)c2n1` [Compound 52], the pIC50 in assay [1] and in assay [2] was more than 8.00 throughout.

On to `C=CC(=O)N[C@H]1COC[C@H]1Nc1ncc2cc(-c3c(Cl)c(OC)cc(OC)c3Cl)cc(Cl)c2n1` [Compound 54], for which the pIC50 in assay [1] and in assay [2] was more than 8.00 in each case.

`C=CC(=O)N[C@H]1COC[C@H]1Nc1ncc2cc(-c3c(Cl)c(OC)cc(OC)c3Cl)c(Cl)cc2n1` [Compound 55]: the pIC50 in assay [1] and in assay [2] was more than 8.00 throughout.

For the compound `C=CC(=O)N[C@H]1CN(C(C)=O)C[C@H]1Nc1ncc2cc(-c3c(Cl)c(OC)cc(OC)c3Cl)ccc2n1` [Compound 56, N-((3S,4R)-1-acetyl-4-((6-(2,6-dichloro-3,5-dimethoxyphenyl)quinazolin-2-yl)amino)pyrrolidin-3-yl)acrylamide], the pIC50 in assay [1] and in assay [2] was more than 8.00 throughout.

Regarding `C=CC(=O)NC1CN(C(C)=O)CC1Nc1ncc2cc(-c3c(Cl)c(OC)cc(OC)c3Cl)ccc2n1` (centres unmarked) [Compound 58], the pIC50 in assay [1] was more than 8.00; in assay [2], 7.00 to 8.00.

Regarding `C=CC(=O)N[C@H]1CCC[C@H]1Nc1ncc2cc(-c3c(Cl)c(OC)cc(OC)c3Cl)c(=O)n(CC)c2n1` [Compound 62, N-((1S,2R)-2-((6-(2,6-dichloro-3,5-dimethoxyphenyl)-8-ethyl-7-oxo-7,8-dihydropyrido[2,3-d]pyrimidin-2-yl)amino)cyclopentyl)acrylamide], the pIC50 in assay [1] is more than 8.00; in assay [2], 7.00 to 8.00.

On to `C=CC(=O)N[C@H]1CCC[C@H]1Nc1ncc2nc(-c3c(Cl)c(OC)cc(OC)c3Cl)c(=O)n(CC)c2n1` [Compound 63], for which the pIC50 in assay [1] is 7.00 to 8.00; in assay [2], 6.00 to 7.00.

For `C=CC(=O)N[C@H]1CCOC[C@H]1Nc1cc2c(cn1)cc(-c1c(Cl)c(OC)cc(OC)c1Cl)c(=O)n2C` [Compound 64], the pIC50 in assay [1] and in assay [2] was more than 8.00 throughout.

In the case of `C=CC(=O)NC1CN(C(=O)CO)CC1Nc1ncc2cc(-c3c(Cl)c(OC)cc(OC)c3Cl)ccc2n1` (centres unmarked) [Compound 75], the pIC50 is more than 8.00 in assay [1] and 7.00 to 8.00 in assay [2].

In the case of `C=CC(=O)N[C@H]1CN(C(=O)CO)C[C@H]1Nc1ncc2cc(-c3c(Cl)c(OC)cc(OC)c3Cl)ccc2n1` [Compound 76], the results for the pIC50 in assay [1] and in assay [2] were more than 8.00 and 7.00 to 8.00, respectively.

`C=CC(=O)N[C@H]1CCCC[C@H]1Nc1ncc2cc(-c3c(Cl)c(OC)cc(OC)c3Cl)c(=O)n(CC)c2n1` [Compound 77]: the pIC50 in assay [1] and in assay [2] was 7.00 to 8.00 each time.

Take `C=CC(=O)N[C@H]1CN(C(=O)C2CC2)C[C@H]1Nc1ncc2cc(-c3c(Cl)c(OC)cc(OC)c3Cl)ccc2n1` [Compound 80]: the pIC50 in assay [1] and in assay [2] was more than 8.00 in each case.

Turning to `C=CC(=O)N[C@H]1C[C@@H](C(=O)N(C)C)C[C@H]1Nc1ncc2cc(-c3c(Cl)c(OC)cc(OC)c3Cl)ccc2n1` [Compound 81, (1 S,3S,4R)-3-acrylamido-4-((6-(2,6-dichloro-3,5-dimethoxyphenyl)quinazolin-2-yl)amino)-N,N-dimethylcyclopentanecarboxamide], the pIC50 in assay [1] was 7.00 to 8.00.

Consider `C=CC(=O)N[C@H]1C[C@H](C(=O)N(C)C)C[C@H]1Nc1ncc2cc(-c3c(Cl)c(OC)cc(OC)c3Cl)ccc2n1` [Compound 82, (1R,3S,4R)-3-acrylamido-4-((6-(2,6-dichloro-3,5-dimethoxyphenyl)quinazolin-2-yl)amino)-N,N-dimethylcyclopentane-1-carboxamide], for which the pIC50 in assay [1] is less than 6.00.

`C=CC(=O)N[C@H]1CN(C(=O)NCC)C[C@H]1Nc1ncc2cc(-c3c(Cl)c(OC)cc(OC)c3Cl)ccc2n1` [Compound 83, (3S,4R)-3-acrylamido-4-((6-(2,6-dichloro-3,5-dimethoxyphenyl)quinazolin-2-yl)amino)-N-ethylpyrrolidine-1-carboxamide]: the pIC50 in assay [1] and in assay [2] was more than 8.00 in each case.

`C=CC(=O)N[C@H]1CN(C(=O)OCC)C[C@H]1Nc1ncc2cc(-c3c(Cl)c(OC)cc(OC)c3Cl)ccc2n1` [Compound 84]: the values for the pIC50 in assay [1] and in assay [2] were more than 8.00 and 7.00 to 8.00, respectively.

As for `C=CC(=O)NC1CN(C(=O)COC)CC1Nc1ncc2cc(-c3c(Cl)c(OC)cc(OC)c3Cl)ccc2n1` (centres unmarked) [Compound 85], the results for the pIC50 in assay [1] and in assay [2] were more than 8.00 and 7.00 to 8.00, respectively.

For the compound `C=CC(=O)N[C@H]1CN(C(=O)COC)C[C@H]1Nc1ncc2cc(-c3c(Cl)c(OC)cc(OC)c3Cl)ccc2n1` [Compound 86], the pIC50 in assay [1] and in assay [2] was more than 8.00 throughout.

Turning to `C=CC(=O)NC1CN(C(=O)CN(C)C)CC1Nc1ncc2cc(-c3c(Cl)c(OC)cc(OC)c3Cl)ccc2n1` (centres unmarked) [Compound 88], the pIC50 is more than 8.00 in assay [1] and 7.00 to 8.00 in assay [2].

Turning to `C=CC(=O)N[C@H]1CCN(C(=O)OC(C)(C)C)C[C@H]1Nc1ncc2cc(-c3c(Cl)c(OC)cc(OC)c3Cl)ccc2n1` [Compound 92], the pIC50 in assay [1] is less than 6.00.
